Measured values published in patent US12180195B1, “6-(6-bromo-2-oxo-2H-chromen-3-yl)-4-(2,4-dichlorophenyl)-2-alkoxynicotinonitrile as an antimicrobial compound” (KING FAISAL UNIVERSITY, priority 2023, dated 2024).

Key:
Assay type in all cases: cell-based
Pseudomonas aeruginosa = assay: Agar plate disc-diffusion, antibacterial inhibition zone; conditions: nutrient agar, 37° C., 48 hours, DMSO zone subtracted
Description: (§1) The agar plate disc-diffusion method was applied. Sterilized filter papers (6 mm in diameter) were wetted with 10 μL of a solution of compounds 6-(6-bromo-2-oxo-2H-chromen-3-yl)-4-(2,4-dichlorophenyl)-2-ethoxynicotinonitrile 1 or 6-(6-bromo-2-oxo-2H-chromen-3-yl)-4-(2,4-dichlorophenyl)-2-methoxynicotinonitrile 2 to be tested, containing […], and the discs were allowed to air dry. The discs were then placed onto the surface of agar plates (nutrient agar for bacteria and Sabouraud's dextrose agar for fungi) seeded with the test organism. Each plate contained 15 mL of the agar medium, previously seeded with 0.2 mL of the broth culture of each organism pregrown for 18 hours. The plates were incubated at 37° C. for 48 hours, and 72 hours for fungi. The inhibition zones were measured in mm. Discs impregnated with DMSO were used as a control, and its inhibition zone was subtracted from the tested compound actual inhibition zone.
(§2) The results of the antimicrobial testing can be observed in Tables 1 and 2, below, using ciprofloxacin as a reference.

Bacillus Cereus = assay: as above; conditions: nutrient agar, 37° C., 48 hours, DMSO zone subtracted
Description: as §1, §2

Escherichia coli = assay: as above; conditions: nutrient agar, 37° C., 48 hours, DMSO zone subtracted
Description: as §1, §2

Staphylococcus aureus = assay: as above; conditions: nutrient agar, 37° C., 48 hours, DMSO zone subtracted
Description: as §1, §2

[1] = tested on: Chrysosporium keratinophilum; assay: Agar plate disc-diffusion, antifungal inhibition zone; conditions: Sabouraud's dextrose agar, 72 hours, DMSO zone subtracted
Description: as §1, §2

Aspergillus flavus = assay: as above; conditions: Sabouraud's dextrose agar, 72 hours, DMSO zone subtracted
Description: as §1, §2

different microbes = assay: Antimicrobial testing, overall statement in words; conditions: summary of Tables 1 and 2, bacteria and fungi
Description: as §1
Their antibacterial activity was screened against gram positive bacteria namely Bacillus cereus and Staphylococcus aureus and gram-negative bacterial strains namely Pseudomonas aeruginosa and Escherichia coli, while their antifungal activity was screened against Aspergillus flavus and Chrysosporium keratinophilum.

[2] = A = concentration of comp. = 10,000 μL
[3] = B = concentration of comp. = 30,000 μL
[4] = C = concentration of comp. = 50,000 μL

Structure (SMILES) | inhibition zone (Pseudomonas aeruginosa; [2]) [mm] | inhibition zone (Pseudomonas aeruginosa; [3]) [mm] | inhibition zone (Pseudomonas aeruginosa; [4]) [mm] | inhibition zone (Bacillus Cereus; [2]) [mm] | inhibition zone (Bacillus Cereus; [3]) [mm] | inhibition zone (Bacillus Cereus; [4]) [mm] | inhibition zone (Escherichia coli; [2]) [mm] | inhibition zone (Escherichia coli; [3]) [mm] | inhibition zone (Escherichia coli; [4]) [mm] | inhibition zone (Staphylococcus aureus; [2]) [mm] | inhibition zone (Staphylococcus aureus; [3]) [mm] | inhibition zone (Staphylococcus aureus; [4]) [mm] | inhibition zone [1, 2] [mm] | inhibition zone [1, 3] [mm] | inhibition zone [1, 4] [mm] | inhibition zone (Aspergillus flavus; [2]) [mm] | inhibition zone (Aspergillus flavus; [3]) [mm] | inhibition zone (Aspergillus flavus; [4]) [mm] | antimicrobial activity (in words) (different microbes)
O=C(O)c1cn(C2CC2)c2cc(N3CCNCC3)c(F)cc2c1=O [Cip., ciprofloxacin, reference compound] | 29 | 30 | 53 | 29 | 30 | 42 | 30 | 39 | 60 | 43 | 44 | 53 | 29 | 30 | 53 | 29 | 30 | 42 | –
CCOc1nc(-c2cc3cc(Br)ccc3oc2=O)cc(-c2ccc(Cl)cc2Cl)c1C#N [Compound 1, 6-(6-bromo-2-oxo-2H-chromen-3-yl)-4-(2,4-dichlorophenyl)-2-ethoxynicotinonitrile] | 24 | 31 | 42 | 26 | 27 | 38 | 30 | 38 | 54 | 13 | 20 | 27 | 22 | 33 | 39 | 26 | 28 | 39 | high antimicrobial activities
COc1nc(-c2cc3cc(Br)ccc3oc2=O)cc(-c2ccc(Cl)cc2Cl)c1C#N [Compound 2, 6-(6-bromo-2-oxo-2H-chromen-3-yl)-4-(2,4-dichlorophenyl)-2-methoxynicotinonitrile] | 24 | 27 | 42 | 27 | 28 | 40 | 28 | 37 | 49 | 14 | 21 | 25 | 28 | 29 | 46 | 17 | 21 | 29 | high antimicrobial activities
